≈ marks a conversion by molar mass, not a printed value. Where two headings read alike, the source gives them in different places.
Test system: MAI
Assay: antibiotic sensitivity (MIC) of MAI strains, paraffin slide culture and microliter assays
Type: cell-based, Mycobacterium avium-intracellulare
Conditions: for MIC: Mycobacterium avium-intracellulare, read-out: MIC
Description: The present invention has met the above-described need. In one embodiment, it provides a method of automatically testing the sensitivity of a paraffinophilic microorganism to different antimicrobial agents, such as antibiotics, and concentrations thereof, by providing a plurality of receptacles, each containing an amount of liquid medium, an antimicrobial agent to be tested and the microorganism to be tested. In each of the receptacles is placed a slide containing a paraffin source. The receptacles are then incubated, after which a light scatter sensing means automatically and sequentially monitors the extent of microorganism growth on the slides. The extent of colony growth is employed to determine which antimicrobial agent in which concentration is effective to resist growth of the microorganism. A preferred light scatter sensing means is a nephelometer.
Referring specifically to FIG. 1, there is shown a preferred embodiment of the present invention usable in a method of automatically testing the sensitivity of a pure culture of a microorganism to different antimicrobial agents and concentrations thereof. In this embodiment, a microorganism, which may have been previously speciated as by the technique taught in U.S. Pat. No. 5,153, 119, has been introduced into a plurality of receptacles, each containing an amount of liquid medium and antimicrobial agent to be tested. A paraffin slide is introduced into each of the receptacles which are subsequently incubated. The receptacles 2-22 (even numbers only) are fixedly secured to an elongated, substantially rigid movable carrier member 26, such that the receptacles 2-22 will be translated therewith in the direction shown by the arrow A. The carrier member 26 may be made of any suitable material, such as aluminum, steel, stainless steel, or resinous plastic, for example. The receptacles 2-22, respectively, contain slides 32-52 (even numbers only). The slides 32-52 are fixedly secured, respectively, within receptacles 2-22 which may test tubes. The slides 32-52 are generally oriented so as to have their elongated direction aligned with the direction of travel of the carrier 26. As the carrier moves in the direction of arrow A, the slides 2-22 will sequentially be positioned in operative relationship to the light scatter sensing means which consists of light source 60, which directs a light beam toward light detector 62. In the preferred embodiment, a beam of visible light from light source 60 will impinge upon slide 32, with the growth of the microorganism thereon producing a corresponding scatter of light which is received by the light receiving sensor 62 and converts the received light into an appropriate output electrical signal which will be delivered to computer means 64. The computer means 64, in turn, provides output to output means 66, which may conveniently be a display, such as a cathode ray tube or a hard copy printer, for example. The degree of light scatter will be related to the extent of microorganism growth with light scatter increasing as growth on the slide increases.
The computer means 64 may be a general purpose digital microprocessor. It may be programmed in a manner readily known to those skilled in the art to sequentially compare the light scatter value of each slide 32-52 with that of a control slide and to provide an output to output means 66, such as a visual screen display or hard copy, with or without prior enhancement, which indicates the difference between the control slide and the specific slides containing the same pure culture of a paraffinophilic microorganism, but exposed to different concentrations of different or the same antimicrobial agents, such an antibiotics. In this manner, there is provided the minimal concentration level of a specific antimicrobial agent that must be used to control growth of the microorganism. Also, the minimum bactericidal concentration may be determined. […]

[1] = Table 2, Exp. Series I, strain 1

With `NCC[C@H](O)C(=O)N[C@@H]1C[C@H](N)[C@@H](O[C@H]2O[C@H](CN)[C@@H](O)[C@H](O)[C@H]2O)[C@H](O)[C@H]1O[C@H]1O[C@H](CO)[C@@H](O)[C@H](N)[C@H]1O` [amikacin] the MIC [1] was > 16 µg/mL, the MIC (Table 2, Exp. Series I, strain 2) was > 16 µg/mL and the MIC (Table 2, Exp. Series I, strain 3) was 6.4 µg/mL (≈ 10.9 µM). For the same compound, the MIC (Table 2, Exp. Series I, strain 4) was 3.2 µg/mL (≈ 5.46 µM), the MIC (Table 2, Exp. Series I, strain 5) was 6.4 µg/mL (≈ 10.9 µM) and the MIC (Table 2, Exp. Series I, strain 6) was 12 µg/mL (≈ 20.5 µM). For the same compound, the MIC (Table 2, Exp. Series I, strain 8) was > 16 µg/mL, the MIC (Table 2, Exp. Series I, strain 9) was 12 µg/mL (≈ 20.5 µM) and the MIC (Table 2, Exp. Series I, strain 10) was 6.4 µg/mL (≈ 10.9 µM). For the same compound, the MIC (Table 2, Exp. Series I, strain 11) was 7.3 µg/mL (≈ 12.5 µM), the MIC (Table 2, Exp. Series I, strain 12) was 3.2 µg/mL (≈ 5.46 µM) and the MIC (Table 2, Exp. Series I, strain 13) was 3.2 µg/mL (≈ 5.46 µM). For the same compound, the MIC (Table 2, Exp. Series I, strain 14) was 9.6 µg/mL (≈ 16.4 µM), the MIC (Table 2, Exp. Series I, strain 15) was 6.4 µg/mL (≈ 10.9 µM) and the MIC (Table 2, Exp. Series I, strain 16) was 6.4 µg/mL (≈ 10.9 µM). For the same compound, the MIC (Table 2, Exp. Series II, strain 1) was > 16 µg/mL, the MIC (Table 2, Exp. Series II, strain 2) was 12 µg/mL (≈ 20.5 µM) and the MIC (Table 2, Exp. Series II, strain 3) was 6.4 µg/mL (≈ 10.9 µM). It also gave an MIC (Table 2, Exp. Series II, strain 4) of 6.4 µg/mL (≈ 10.9 µM), an MIC (Table 2, Exp. Series II, strain 5) of 3.2 µg/mL (≈ 5.46 µM) and an MIC (Table 2, Exp. Series II, strain 6) of 3.2 µg/mL (≈ 5.46 µM). The MIC (Table 2, Exp. Series II, strain 7) was 6.4 µg/mL (≈ 10.9 µM), the MIC (Table 2, Exp. Series II, strain 8) was > 16 µg/mL and the MIC (Table 2, Exp. Series II, strain 9) was 3.2 µg/mL (≈ 5.46 µM). For the same compound, the MIC (Table 2, Exp. Series II, strain 10) was 6.4 µg/mL (≈ 10.9 µM), the MIC (Table 2, Exp. Series II, strain 11) was 9.6 µg/mL (≈ 16.4 µM) and the MIC (Table 2, Exp. Series II, strain 12) was 6.4 µg/mL (≈ 10.9 µM). For the same compound, the MIC (Table 2, Exp. Series II, strain 13) was 9.6 µg/mL (≈ 16.4 µM), the MIC (Table 2, Exp. Series II, strain 14) was > 16 µg/mL and the MIC (Table 2, Exp. Series II, strain 15) was 6.4 µg/mL (≈ 10.9 µM). The MIC (Table 2, Exp. Series II, strain 16) was 9.6 µg/mL (≈ 16.4 µM), the MIC (Table 2, Exp. Series III, strain 1) was 3.2 µg/mL (≈ 5.46 µM) and the MIC (Table 2, Exp. Series III, strain 2) was 3.2 µg/mL (≈ 5.46 µM). The MIC (Table 2, Exp. Series III, strain 3) was 6.4 µg/mL (≈ 10.9 µM), the MIC (Table 2, Exp. Series III, strain 4) was 3.2 µg/mL (≈ 5.46 µM) and the MIC (Table 2, Exp. Series III, strain 5) was 3.2 µg/mL (≈ 5.46 µM). For the same compound, the MIC (Table 2, Exp. Series III, strain 6) was 3.2 µg/mL (≈ 5.46 µM), the MIC (Table 2, Exp. Series III, strain 7) was 6.4 µg/mL (≈ 10.9 µM) and the MIC (Table 2, Exp. Series III, strain 8) was 3.2 µg/mL (≈ 5.46 µM). For the same compound, the MIC (Table 2, Exp. Series III, strain 9) was 3.2 µg/mL (≈ 5.46 µM), the MIC (Table 2, Exp. Series III, strain 10) was 3.2 µg/mL (≈ 5.46 µM) and the MIC (Table 2, Exp. Series III, strain 11) was 6.4 µg/mL (≈ 10.9 µM). For the same compound, the MIC (Table 2, Exp. Series III, strain 12) was 6.4 µg/mL (≈ 10.9 µM), the MIC (Table 2, Exp. Series III, strain 13) was 6.4 µg/mL (≈ 10.9 µM) and the MIC (Table 2, Exp. Series III, strain 14) was 6.4 µg/mL (≈ 10.9 µM). The MIC (Table 2, Exp. Series III, strain 15) was 3.2 µg/mL (≈ 5.46 µM), the MIC (Table 2, Exp. Series III, strain 16) was 3.2 µg/mL (≈ 5.46 µM) and the “Days to Confluency” value [1] was 7 days.

— patent US5637501A, “Apparatus for automatically testing the antibiotic sensitivity of a paraffinophilic microorganism” (Infectech, Inc., priority 1995, dated 1997)
